Tests used:
[1] = tested on: MDA-MB-468; experiment: Cytotoxicity against human MDA-MB-468 cells; format: functional
[2] = tested on: IGROV-1; experiment: Cytotoxicity against human IGROV1 cells; format: functional
[3] = tested on: T47D; experiment: Cytotoxicity against human T47D cells; format: functional
[4] = tested on: BT-549; experiment: Cytotoxicity against human BT549 cells; format: functional
[5] = Cytotoxicity against human Hs 578T cells; format: functional
[6] = tested on: MCF7; experiment: Cytotoxicity against human MCF7 cells; format: functional
[7] = tested on: MDA-MB-231; experiment: Cytotoxicity against human MDA-MB-231 cells; format: functional
[8] = tested on: PC-3; experiment: Cytotoxicity against human PC3 cells; format: functional
[9] = tested on: A498; experiment: Cytotoxicity against human A498 cells; format: functional
[10] = tested on: OVCAR-8; experiment: Cytotoxicity against human OVCAR8 cells; format: functional
[11] = tested on: OVCAR-3; experiment: Cytotoxicity against human OVCAR3 cells; format: functional
[12] = Cytotoxicity against human OVCAR4 cells; format: functional
[13] = tested on: UACC-62; experiment: Cytotoxicity against human UACC62 cells; format: functional
[14] = Cytotoxicity against human UACC257 cells; format: functional
[15] = tested on: SK-MEL-2; experiment: Cytotoxicity against human SK-MEL-2 cells; format: functional
[16] = tested on: SK-MEL-28; experiment: Cytotoxicity against human SK-MEL-28 cells; format: functional
[17] = tested on: MDA-MB-435; experiment: Cytotoxicity against human MDA-MB-435 cells; format: functional
[18] = tested on: M14; experiment: Cytotoxicity against human M14 cells; format: functional
[19] = tested on: Malme-3M; experiment: Cytotoxicity against human MALME-3M cells; format: functional
[20] = tested on: LOX IMVI; experiment: Cytotoxicity against human LOXIMVI cells; format: functional
[21] = tested on: SNB-19; experiment: Cytotoxicity against human SNB19 cells; format: functional
[22] = tested on: SNB-75; experiment: Cytotoxicity against human SNB75 cells; format: functional
[23] = tested on: SF-268; experiment: Cytotoxicity against human SF268 cells; format: functional
[24] = tested on: KM12; experiment: Cytotoxicity against human KM12 cells; format: functional
[25] = tested on: SF-539; experiment: Cytotoxicity against human SF539 cells; format: functional
[26] = tested on: HCT-116; experiment: Cytotoxicity against human HCT116 cells; format: functional
[27] = tested on: HCC 2998; experiment: Cytotoxicity against human HCC2998 cells; format: functional
[28] = tested on: NCI-H522; experiment: Cytotoxicity against human NCI-H522 cells; format: functional
[29] = tested on: COLO 205; experiment: Cytotoxicity against human COLO205 cells; format: functional
[30] = tested on: NCI-H460; experiment: Cytotoxicity against human NCI-H460 cells; format: functional
[31] = tested on: HOP-92; experiment: Cytotoxicity against human HOP92 cells; format: functional
[32] = tested on: RPMI-8226; experiment: Cytotoxicity against human RPMI8226 cells; format: functional
[33] = tested on: SR; experiment: Cytotoxicity against human SR cells; format: functional
[34] = tested on: MOLT-4; experiment: Cytotoxicity against human MOLT4 cells; format: functional
[35] = tested on: K562; experiment: Cytotoxicity against human K562 cells; format: functional
[36] = tested on: CCRF-CEM; experiment: Cytotoxicity against human CCRF-CEM cells; format: functional
[37] = tested on: HL-60(TB); experiment: Cytotoxicity against human HL-60(TB) cells; format: functional
[38] = Cytotoxicity against human Hs 578T cells at 10 uM; format: functional; conditions: read-out: GI
[39] = tested on: MDA-MB-468; experiment: Cytotoxicity against human MDA-MB-468 cells at 10 uM; format: functional; conditions: read-out: GI
[40] = tested on: MCF7; experiment: Cytotoxicity against human MCF7 cells at 10 uM; format: functional; conditions: read-out: GI
[41] = tested on: T47D; experiment: Cytotoxicity against human T47D cells at 10 uM; format: functional; conditions: read-out: GI
[42] = tested on: DU-145; experiment: Cytotoxicity against human DU145 cells at 10 uM; format: functional; conditions: read-out: GI
[43] = tested on: PC-3; experiment: Cytotoxicity against human PC3 cells at 10 uM; format: functional; conditions: read-out: GI
[44] = tested on: A498; experiment: Cytotoxicity against human A498 cells at 10 uM; format: functional; conditions: read-out: GI
[45] = Cytotoxicity against human NCI-ADR-RES cells at 10 uM; format: functional; conditions: read-out: GI
[46] = tested on: LOX IMVI; experiment: Cytotoxicity against human LOXIMVI cells at 10 uM; format: functional; conditions: read-out: GI
[47] = tested on: OVCAR-3; experiment: Cytotoxicity against human OVCAR3 cells at 10 uM; format: functional; conditions: read-out: GI
[48] = tested on: UACC-62; experiment: Cytotoxicity against human UACC62 cells at 10 uM; format: functional; conditions: read-out: GI
[49] = tested on: SK-MEL-2; experiment: Cytotoxicity against human SK-MEL-2 cells at 10 uM; format: functional; conditions: read-out: GI
[50] = tested on: SF-268; experiment: Cytotoxicity against human SF268 cells at 10 uM; format: functional; conditions: read-out: GI
[51] = tested on: SW-620; experiment: Cytotoxicity against human SW620 cells at 10 uM; format: functional; conditions: read-out: GI
[52] = tested on: SNB-75; experiment: Cytotoxicity against human SNB75 cells at 10 uM; format: functional; conditions: read-out: GI
[53] = tested on: KM12; experiment: Cytotoxicity against human KM12 cells at 10 uM; format: functional; conditions: read-out: GI
[54] = tested on: HT-29; experiment: Cytotoxicity against human HT-29 cells at 10 uM; format: functional; conditions: read-out: GI
[55] = tested on: HOP-92; experiment: Cytotoxicity against human HOP92 cells at 10 uM; format: functional; conditions: read-out: GI
[56] = tested on: NCI-H460; experiment: Cytotoxicity against human NCI-H460 cells at 10 uM; format: functional; conditions: read-out: GI
[57] = tested on: A549; experiment: Cytotoxicity against human A549 cells at 10 uM; format: functional; conditions: read-out: GI
[58] = tested on: SR; experiment: Cytotoxicity against human SR cells at 10 uM; format: functional; conditions: read-out: GI
[59] = tested on: MOLT-4; experiment: Cytotoxicity against human MOLT4 cells at 10 uM; format: functional; conditions: read-out: GI
[60] = tested on: RPMI-8226; experiment: Cytotoxicity against human RPMI8226 cells at 10 uM; format: functional; conditions: read-out: GI
[61] = tested on: HL-60(TB); experiment: Cytotoxicity against human HL-60(TB) cells at 10 uM; format: functional; conditions: read-out: GI
[62] = target: Carbonic anhydrase 9 (Homo sapiens, UniProt Q16790)
Description: Inhibition of CA9 (unknown origin)

[63] = read-out: LC50 (the source's name)

Structure (SMILES): Cc1cc(S(=O)(=O)NC(=N)NCc2ccc(S(N)(=O)=O)cc2)c(SCc2ccc(C(F)(F)F)cc2)cc1Cl
- GI50 [1]: 2.9 µM
- TGI [1]: 13.8 µM
- CC50 [1, 63]: 66.4 µM
- GI50 [2]: 4.9 µM
- TGI [2]: 17.7 µM
- CC50 [2, 63]: 64.8 µM
- GI50 [3]: 4.7 µM
- TGI [3]: 20.7 µM
- CC50 [3, 63]: 84.4 µM
- GI50 [4]: 4.4 µM
- TGI [4]: 12.9 µM
- CC50 [4, 63]: 46.9 µM
- GI50 [5]: 4.6 µM
- TGI [5]: 24.1 µM
- CC50 [5, 63]: > 100 µM
- GI50 [6]: 3.3 µM
- TGI [6]: 13.6 µM
- CC50 [6, 63]: 67.1 µM
- GI50 [7]: 3.1 µM
- TGI [7]: 8.9 µM
- CC50 [7, 63]: 34.5 µM
- GI50 [8]: 3.3 µM
- TGI [8]: 12.8 µM
- CC50 [8, 63]: 43.2 µM
- GI50 [9]: 3.1 µM
- TGI [9]: 17.3 µM
- CC50 [9, 63]: 46.5 µM
- GI50 [10]: 5 µM
- TGI [10]: 21 µM
- CC50 [10, 63]: 70.2 µM
- GI50 [11]: 4.3 µM
- TGI [11]: 15.4 µM
- CC50 [11, 63]: 41 µM
- GI50 ([12]; OVCAR-4): 4.2 µM
- TGI ([12]; OVCAR-4): 20.3 µM
- CC50 ([12]; OVCAR-4, read-out: LC50 (the source's name)): 75.9 µM
- GI50 [13]: 2.6 µM
- TGI [13]: 9.1 µM
- CC50 [13, 63]: 32 µM
- GI50 ([14]; UACC-257): 3.7 µM
- TGI ([14]; UACC-257): 14.7 µM
- CC50 ([14]; UACC-257, read-out: LC50 (the source's name)): 39.4 µM
- GI50 [15]: 2.5 µM
- TGI [15]: 6.2 µM
- CC50 [15, 63]: 22.2 µM
- GI50 [16]: 3.6 µM
- TGI [16]: 14 µM
- CC50 [16, 63]: 44.3 µM
- GI50 [17]: 3.8 µM
- TGI [17]: 12.5 µM
- CC50 [17, 63]: 41.9 µM
- GI50 [18]: 4.5 µM
- TGI [18]: 16.8 µM
- CC50 [18, 63]: 49.6 µM
- GI50 [19]: 3.8 µM
- TGI [19]: 16.3 µM
- CC50 [19, 63]: 49.5 µM
- GI50 [20]: 6.1 µM
- TGI [20]: 20.5 µM
- CC50 [20, 63]: 54.3 µM
- GI50 [21]: 5 µM
- TGI [21]: 19.3 µM
- CC50 [21, 63]: 54.4 µM
- GI50 [22]: 3 µM
- TGI [22]: 15.9 µM
- CC50 [22, 63]: 56.4 µM
- GI50 [23]: 4.8 µM
- TGI [23]: 18.5 µM
- CC50 [23, 63]: 55.8 µM
- GI50 [24]: 3.1 µM
- TGI [24]: 10.1 µM
- CC50 [24, 63]: 41.7 µM
- GI50 [25]: 5.2 µM
- TGI [25]: 17.9 µM
- CC50 [25, 63]: 44.8 µM
- GI50 [26]: 4.1 µM
- TGI [26]: 15.9 µM
- CC50 [26, 63]: 46.6 µM
- GI50 [27]: 3.1 µM
- TGI [27]: 10.4 µM
- CC50 [27, 63]: 41.7 µM
- GI50 [28]: 4.6 µM
- TGI [28]: 16.8 µM
- CC50 [28, 63]: 42.3 µM
- GI50 [29]: 3.5 µM
- TGI [29]: 11.4 µM
- CC50 [29, 63]: 58.1 µM
- GI50 [30]: 3.8 µM
- TGI [30]: 15.7 µM
- CC50 [30, 63]: 63.9 µM
- GI50 [31]: 2.9 µM
- TGI [31]: 8.3 µM
- CC50 [31, 63]: 32.4 µM
- GI50 [32]: 2.8 µM
- TGI [32]: 9.1 µM
- CC50 [32, 63]: 98.6 µM
- GI50 [33]: 2.4 µM
- TGI [33]: 6.8 µM
- CC50 [33, 63]: > 100 µM
- GI50 [34]: 3 µM
- TGI [34]: 10.5 µM
- CC50 [34, 63]: > 100 µM
- GI50 [35]: 3.7 µM
- TGI [35]: 25.3 µM
- CC50 [35, 63]: > 100 µM
- GI50 [36]: 3.5 µM
- TGI [36]: 13.4 µM
- CC50 [36, 63]: 85.3 µM
- GI50 [37]: 2.4 µM
- TGI [37]: 6.4 µM
- CC50 [37, 63]: 54.4 µM
- inhibition of growth at 10 µM [38]: 68%
- inhibition of growth at 10 µM [39]: 37%
- inhibition of growth at 10 µM [40]: 47%
- inhibition of growth at 10 µM [41]: 30%
- inhibition of growth at 10 µM [42]: 57%
- inhibition of growth at 10 µM [43]: 83%
- inhibition of growth at 10 µM [44]: 63%
- inhibition of growth at 10 µM [45]: 64%
- inhibition of growth at 10 µM [46]: 67%
- inhibition of growth at 10 µM [47]: 1%
- inhibition of growth at 10 µM [48]: 59%
- inhibition of growth at 10 µM [49]: 94%
- inhibition of growth at 10 µM [50]: 69%
- inhibition of growth at 10 µM [51]: 68%
- inhibition of growth at 10 µM [52]: 68%
- inhibition of growth at 10 µM [53]: 89%
- inhibition of growth at 10 µM [54]: 79%
- inhibition of growth at 10 µM [55]: 89%
- inhibition of growth at 10 µM [56]: 53%
- inhibition of growth at 10 µM [57]: 60%
- inhibition of growth at 10 µM [58]: 17%
- inhibition of growth at 10 µM [59]: 48%
- inhibition of growth at 10 µM [60]: 58%
- inhibition of growth at 10 µM [61]: 83%

Structure (SMILES): NS(=O)(=O)c1ccc2c(c1)CCC2NC(=O)c1c(F)c(F)c(F)c(F)c1F (stereo unspecified)
- Ki [62]: 0.0032 µM
